Measurements from ChEMBL document CHEMBL1201862, “PubChem BioAssay data set” (2004).
Active and inactive are the calls of the source.

What was measured:
Genome polyprotein [1] = biological target: Genome polyprotein (Hepatitis C virus, UniProt Q2Q167); assay: HCV core protein dimerization inhibitors, dose response, biochemical, TR-FRET (AID 2159); design: species or system Hepacivirus hominis;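 further: blocks dimerization of HCV core protein measured by TR-FRET between tagged core106 pairs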
[2] = A High Throughput Confirmatory Assay used to Identify Novel Compounds that Inhibit Mycobacterium Tuberculosis in the absence of Glycerol.; format: functional
[3] = microbe, parasite or virus in culture; format: functional; conditions: Mycobacterium tuberculosis
[4] = THP-1 cell cytotoxicity, dose response, cytotoxicity control for non-replicating M. tuberculosis project (AID 489025); format: functional
[5] = Luminescence Cell-Based Dose Retest to Confirm Inhibitors of Cancer Stem Cells. [Related pubchem assays (depositor defined):AID2717, AID2721]; format: functional; conditions: Homo sapiens
cells = format: functional
Vero = Vero cell cytotoxicity, cytotoxicity control for flavivirus capping enzyme inhibitors (AID 588742); format: functional; conditions: Chlorocebus sabaeus
Genome polyprotein [6] = biological target: Genome polyprotein (dengue virus type 2, UniProt P29990); assay: Dengue-2 NS5 methyltransferase inhibitors, primary screen, biochemical, confirmation dose response (AID 588689); format: functional
Chain of Genome polyprotein (dengue virus type 2, UniProt P29990) (P29990 2492-3391 limits assumed): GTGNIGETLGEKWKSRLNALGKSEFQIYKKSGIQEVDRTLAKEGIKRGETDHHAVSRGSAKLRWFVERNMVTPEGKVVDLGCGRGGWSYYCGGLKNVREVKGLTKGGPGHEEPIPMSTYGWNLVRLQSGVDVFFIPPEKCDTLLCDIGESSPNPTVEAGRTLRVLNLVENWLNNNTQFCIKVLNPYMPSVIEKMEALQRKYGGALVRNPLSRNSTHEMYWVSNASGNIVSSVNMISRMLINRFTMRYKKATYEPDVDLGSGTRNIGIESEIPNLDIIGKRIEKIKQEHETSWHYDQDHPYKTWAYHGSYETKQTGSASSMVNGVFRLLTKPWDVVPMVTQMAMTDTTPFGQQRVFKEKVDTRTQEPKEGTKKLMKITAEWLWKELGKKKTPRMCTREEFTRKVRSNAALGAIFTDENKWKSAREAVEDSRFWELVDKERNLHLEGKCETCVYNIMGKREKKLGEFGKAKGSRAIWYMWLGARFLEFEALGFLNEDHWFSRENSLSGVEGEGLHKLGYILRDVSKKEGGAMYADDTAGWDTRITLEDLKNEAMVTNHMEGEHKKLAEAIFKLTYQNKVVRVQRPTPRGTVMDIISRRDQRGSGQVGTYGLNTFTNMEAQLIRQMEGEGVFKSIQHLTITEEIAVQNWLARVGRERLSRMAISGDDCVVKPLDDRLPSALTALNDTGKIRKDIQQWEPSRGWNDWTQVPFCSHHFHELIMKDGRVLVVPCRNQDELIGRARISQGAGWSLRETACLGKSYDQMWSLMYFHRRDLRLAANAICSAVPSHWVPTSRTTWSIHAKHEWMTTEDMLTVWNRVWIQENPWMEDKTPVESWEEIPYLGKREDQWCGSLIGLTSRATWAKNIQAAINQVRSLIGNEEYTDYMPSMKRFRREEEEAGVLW

[7] = biological target: DNA (cytosine-5)-methyltransferase 1 (Homo sapiens, UniProt P26358); assay: DNMT1 methyltransferase inhibitors, confirmation, biochemical, fluorescent molecular beacon (AID 602386); format: functional
Chain of DNA (cytosine-5)-methyltransferase 1 (P26358 whole entry): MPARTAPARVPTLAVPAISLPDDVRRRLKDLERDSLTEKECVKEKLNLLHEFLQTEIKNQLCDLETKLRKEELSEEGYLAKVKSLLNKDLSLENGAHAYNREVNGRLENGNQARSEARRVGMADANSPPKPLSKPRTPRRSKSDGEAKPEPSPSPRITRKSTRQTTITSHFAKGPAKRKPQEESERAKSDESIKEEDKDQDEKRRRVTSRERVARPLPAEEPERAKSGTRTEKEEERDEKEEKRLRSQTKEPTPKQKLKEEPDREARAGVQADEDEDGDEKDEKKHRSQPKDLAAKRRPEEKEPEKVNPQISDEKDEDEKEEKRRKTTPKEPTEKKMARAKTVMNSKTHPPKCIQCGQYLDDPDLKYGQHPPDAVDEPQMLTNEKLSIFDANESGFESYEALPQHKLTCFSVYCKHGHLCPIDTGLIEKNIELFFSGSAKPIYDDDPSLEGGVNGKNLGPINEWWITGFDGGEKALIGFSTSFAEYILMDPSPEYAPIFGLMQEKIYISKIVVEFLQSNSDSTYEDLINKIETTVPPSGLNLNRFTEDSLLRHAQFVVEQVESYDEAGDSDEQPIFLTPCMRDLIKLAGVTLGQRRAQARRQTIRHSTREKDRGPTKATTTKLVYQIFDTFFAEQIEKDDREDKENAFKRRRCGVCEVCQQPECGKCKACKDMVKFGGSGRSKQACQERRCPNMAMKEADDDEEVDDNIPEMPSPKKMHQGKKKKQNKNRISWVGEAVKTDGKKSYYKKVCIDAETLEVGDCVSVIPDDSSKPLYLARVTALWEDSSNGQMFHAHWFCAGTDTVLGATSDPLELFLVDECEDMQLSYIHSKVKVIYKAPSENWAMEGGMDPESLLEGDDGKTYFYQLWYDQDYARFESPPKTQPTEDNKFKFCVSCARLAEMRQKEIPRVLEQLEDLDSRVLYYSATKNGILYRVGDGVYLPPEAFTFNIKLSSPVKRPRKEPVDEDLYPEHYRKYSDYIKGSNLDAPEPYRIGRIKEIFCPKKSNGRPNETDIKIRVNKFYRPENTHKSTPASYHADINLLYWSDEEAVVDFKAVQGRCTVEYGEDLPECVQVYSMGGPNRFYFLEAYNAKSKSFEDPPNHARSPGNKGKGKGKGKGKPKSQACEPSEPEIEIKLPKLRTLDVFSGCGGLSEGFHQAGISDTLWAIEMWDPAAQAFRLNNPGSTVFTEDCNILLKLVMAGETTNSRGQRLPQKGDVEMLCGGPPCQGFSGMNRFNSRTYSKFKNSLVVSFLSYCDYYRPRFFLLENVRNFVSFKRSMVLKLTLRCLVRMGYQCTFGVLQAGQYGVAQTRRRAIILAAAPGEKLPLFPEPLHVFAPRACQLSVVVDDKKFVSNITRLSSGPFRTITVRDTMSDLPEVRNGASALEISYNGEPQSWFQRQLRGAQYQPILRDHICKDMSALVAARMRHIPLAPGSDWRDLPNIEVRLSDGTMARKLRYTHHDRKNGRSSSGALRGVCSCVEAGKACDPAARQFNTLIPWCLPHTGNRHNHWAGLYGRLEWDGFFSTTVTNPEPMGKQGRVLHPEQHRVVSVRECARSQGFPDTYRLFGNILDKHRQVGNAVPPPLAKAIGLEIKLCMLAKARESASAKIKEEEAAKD

[8] = biological target: Matrix metalloproteinase-14 (Homo sapiens, UniProt P50281); assay: Dose Response confirmation of uHTS hits for a small molecule inhibitors of MT1-MMP activation in a fluorescence assay set 2.; format: functional
Protein Tat = biological target: T1, Protein Tat (Human immunodeficiency virus type 1 group M subtype B (isolate HXB2)(HIV-1), UniProt P04608); format: functional;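 further: tat binding to TAR RNA read out by fluorescence polarization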
T1 sequence (P04608 whole entry): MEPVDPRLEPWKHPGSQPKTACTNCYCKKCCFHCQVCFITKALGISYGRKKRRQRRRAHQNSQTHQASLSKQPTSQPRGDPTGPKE

[9] = THP-1 cell cytotoxicity, dose response, cytotoxicity control for Vif-APOBEC3G degradation inhibitor project, THP-1 cells (AID 1117359); format: functional; conditions: Human immunodeficiency virus 1, THP-1
Caspase-3 [10] = biological target: T2, Caspase-3 (Homo sapiens, UniProt P42574); format: functional
T2 sequence (P42574 whole entry): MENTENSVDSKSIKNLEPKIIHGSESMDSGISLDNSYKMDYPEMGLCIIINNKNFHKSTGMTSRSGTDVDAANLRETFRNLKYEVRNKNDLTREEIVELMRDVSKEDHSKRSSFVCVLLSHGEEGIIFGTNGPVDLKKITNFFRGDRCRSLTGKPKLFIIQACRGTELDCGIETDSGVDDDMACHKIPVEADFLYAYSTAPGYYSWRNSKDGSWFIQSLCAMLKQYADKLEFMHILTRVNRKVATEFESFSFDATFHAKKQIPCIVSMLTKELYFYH

[11] = biological target: T3, Sentrin-specific protease 7 (Homo sapiens, UniProt Q9BQF6); format: functional;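 further: Luminescence-based dose-response confirmation of ultra-high-throughput screening hits, measuring inhibition of SENP7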
T3 sequence (Q9BQF6 whole entry): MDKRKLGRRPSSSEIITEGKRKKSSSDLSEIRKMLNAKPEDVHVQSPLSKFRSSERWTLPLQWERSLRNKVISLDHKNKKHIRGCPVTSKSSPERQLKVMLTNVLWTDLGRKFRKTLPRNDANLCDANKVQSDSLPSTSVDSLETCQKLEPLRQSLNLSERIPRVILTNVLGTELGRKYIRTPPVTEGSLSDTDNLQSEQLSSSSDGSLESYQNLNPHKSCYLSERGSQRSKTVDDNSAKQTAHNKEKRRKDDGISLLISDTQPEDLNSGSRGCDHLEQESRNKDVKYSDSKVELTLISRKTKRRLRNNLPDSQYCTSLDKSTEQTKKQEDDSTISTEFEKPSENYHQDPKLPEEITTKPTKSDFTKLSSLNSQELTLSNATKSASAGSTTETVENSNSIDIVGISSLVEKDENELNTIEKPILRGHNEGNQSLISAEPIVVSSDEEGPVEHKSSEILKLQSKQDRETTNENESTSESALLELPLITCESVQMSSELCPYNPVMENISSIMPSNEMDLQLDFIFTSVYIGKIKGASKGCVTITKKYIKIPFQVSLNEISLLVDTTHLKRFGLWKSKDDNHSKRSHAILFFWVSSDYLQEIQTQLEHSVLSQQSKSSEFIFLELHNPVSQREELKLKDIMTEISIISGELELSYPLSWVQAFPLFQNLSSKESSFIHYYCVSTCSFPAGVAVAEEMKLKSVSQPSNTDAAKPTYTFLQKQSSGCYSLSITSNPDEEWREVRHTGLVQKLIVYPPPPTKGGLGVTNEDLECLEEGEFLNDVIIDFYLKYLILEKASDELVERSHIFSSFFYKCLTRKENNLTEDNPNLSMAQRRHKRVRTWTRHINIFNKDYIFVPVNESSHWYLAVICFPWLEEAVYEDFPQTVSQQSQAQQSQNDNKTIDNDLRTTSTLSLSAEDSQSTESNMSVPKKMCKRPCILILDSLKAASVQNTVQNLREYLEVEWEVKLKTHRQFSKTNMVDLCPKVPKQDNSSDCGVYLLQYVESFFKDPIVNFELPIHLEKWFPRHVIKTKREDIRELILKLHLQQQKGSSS

[12] = biological target: T4, Sentrin-specific protease 6 (Homo sapiens, UniProt Q9GZR1); format: functional
T4 sequence (Q9GZR1 whole entry): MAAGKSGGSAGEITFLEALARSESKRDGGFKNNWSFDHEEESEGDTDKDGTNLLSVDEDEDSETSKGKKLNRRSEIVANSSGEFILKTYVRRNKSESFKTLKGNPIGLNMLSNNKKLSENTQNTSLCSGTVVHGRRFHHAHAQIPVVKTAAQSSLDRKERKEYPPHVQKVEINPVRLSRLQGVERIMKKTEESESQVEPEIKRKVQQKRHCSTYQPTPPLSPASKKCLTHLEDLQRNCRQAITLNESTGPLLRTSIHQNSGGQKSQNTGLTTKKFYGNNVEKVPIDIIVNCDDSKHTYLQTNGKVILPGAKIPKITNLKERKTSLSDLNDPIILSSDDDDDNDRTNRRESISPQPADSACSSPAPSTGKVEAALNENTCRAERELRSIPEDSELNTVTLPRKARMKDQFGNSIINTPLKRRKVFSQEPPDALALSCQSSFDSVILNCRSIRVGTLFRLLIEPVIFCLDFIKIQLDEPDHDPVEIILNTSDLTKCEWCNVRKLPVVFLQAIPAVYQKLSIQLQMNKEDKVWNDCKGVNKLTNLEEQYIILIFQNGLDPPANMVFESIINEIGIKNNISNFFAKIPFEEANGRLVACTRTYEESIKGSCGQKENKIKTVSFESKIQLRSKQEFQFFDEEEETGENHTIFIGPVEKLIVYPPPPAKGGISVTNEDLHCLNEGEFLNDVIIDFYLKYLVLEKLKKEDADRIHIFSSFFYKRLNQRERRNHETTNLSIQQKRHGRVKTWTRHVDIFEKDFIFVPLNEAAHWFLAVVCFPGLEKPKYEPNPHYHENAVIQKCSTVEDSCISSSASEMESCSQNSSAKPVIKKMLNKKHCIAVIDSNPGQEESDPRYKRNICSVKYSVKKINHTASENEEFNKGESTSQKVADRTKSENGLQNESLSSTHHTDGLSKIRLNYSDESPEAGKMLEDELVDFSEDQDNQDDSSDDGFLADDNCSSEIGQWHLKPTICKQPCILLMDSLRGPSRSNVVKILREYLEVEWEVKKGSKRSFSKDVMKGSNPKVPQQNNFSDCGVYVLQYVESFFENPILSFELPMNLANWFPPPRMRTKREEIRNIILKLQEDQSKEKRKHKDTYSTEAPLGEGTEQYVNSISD

[13] = biological target: T5, Sentrin-specific protease 8 (Homo sapiens, UniProt Q96LD8); format: functional;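 further: luminescence read-out of SENP8 inhibition, dose-response confirmation following an ultra-high-throughput screen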
T5 sequence (Q96LD8 whole entry): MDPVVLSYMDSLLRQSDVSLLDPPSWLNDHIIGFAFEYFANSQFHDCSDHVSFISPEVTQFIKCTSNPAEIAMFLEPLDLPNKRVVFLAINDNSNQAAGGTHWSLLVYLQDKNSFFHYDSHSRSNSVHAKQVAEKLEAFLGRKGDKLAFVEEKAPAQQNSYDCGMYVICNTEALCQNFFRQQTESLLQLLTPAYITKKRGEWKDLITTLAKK

[14] = biological target: T5, Sentrin-specific protease 8; assay: SENP8 protease inhibitors, SAR follow-up, biochemical, luminescence (AID 504501); format: functional
Caspase-3 [15] = biological target: T2, Caspase-3; assay: SAR Analysis of small molecule inhibitors of Sentrin-specific proteases (SENPs) using a Caspase-3 Selectivity assay. [Related pubchem assays (depositor defined):AID2540, AID2599, AID434973, AID489001]; format: functional
[16] = biological target: T4, Sentrin-specific protease 6; assay: SAR Analysis of small molecule inhibitors of Sentrin-specific protease 6 (SENP6) using a Luminescent assay. [Related pubchem assays (depositor defined):AID2582, AID2599]; format: functional
[17] = biological target: T3, Sentrin-specific protease 7; assay: SENP7 protease inhibitors, SAR follow-up, biochemical, luminescence (AID 504497); format: functional
[18] = biological target: 5-hydroxytryptamine receptor 1E (Homo sapiens, UniProt P28566); assay: Counterscreen assay for S1P3 antagonists: Dose response cell-based high throughput screening assay to identify antagonists of the 5-Hydroxytryptamine Receptor Subtype 1E (5HT1E). [Related pubchem assays: 1429, 485 ]; format: functional
Chain of 5-hydroxytryptamine receptor 1E (P28566 whole entry): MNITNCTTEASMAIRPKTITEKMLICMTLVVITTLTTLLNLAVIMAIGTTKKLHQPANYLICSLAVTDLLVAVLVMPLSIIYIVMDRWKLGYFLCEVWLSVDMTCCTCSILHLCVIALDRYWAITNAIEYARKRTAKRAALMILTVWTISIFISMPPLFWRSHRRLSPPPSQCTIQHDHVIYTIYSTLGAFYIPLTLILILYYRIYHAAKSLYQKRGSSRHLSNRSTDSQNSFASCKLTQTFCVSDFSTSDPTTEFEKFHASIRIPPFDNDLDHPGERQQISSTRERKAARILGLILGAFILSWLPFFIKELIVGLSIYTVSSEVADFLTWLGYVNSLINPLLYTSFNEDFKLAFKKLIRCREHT

[19] = biological target: Sphingosine 1-phosphate receptor 3 (Homo sapiens, UniProt Q99500); assay: Dose response cell-based high throughput screening assay for antagonists of the Sphingosine 1-Phosphate Receptor 3 (S1P3). [Related pubchem assays: 1429, 485 ]; format: functional
Chain of Sphingosine 1-phosphate receptor 3 (Q99500 whole entry): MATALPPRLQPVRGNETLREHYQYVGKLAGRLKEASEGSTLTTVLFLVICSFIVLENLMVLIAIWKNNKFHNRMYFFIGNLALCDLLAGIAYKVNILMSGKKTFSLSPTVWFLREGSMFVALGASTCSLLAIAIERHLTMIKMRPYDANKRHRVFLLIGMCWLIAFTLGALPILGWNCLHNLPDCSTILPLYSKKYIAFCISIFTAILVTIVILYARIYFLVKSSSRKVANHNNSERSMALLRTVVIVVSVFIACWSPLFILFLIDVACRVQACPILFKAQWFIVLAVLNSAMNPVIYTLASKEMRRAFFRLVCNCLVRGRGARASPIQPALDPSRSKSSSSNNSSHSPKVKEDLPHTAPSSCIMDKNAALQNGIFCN

[20] = biological target: G-protein coupled receptor 55 (Homo sapiens, UniProt Q9Y2T6); assay: GPR55 agonists via beta-arrestin recruitment, primary screen, imaging, U2OS cells, beta-arrestin-GFP redistribution (AID 1961); format: functional
Chain of G-protein coupled receptor 55 (Q9Y2T6 whole entry, the tested form may be a part): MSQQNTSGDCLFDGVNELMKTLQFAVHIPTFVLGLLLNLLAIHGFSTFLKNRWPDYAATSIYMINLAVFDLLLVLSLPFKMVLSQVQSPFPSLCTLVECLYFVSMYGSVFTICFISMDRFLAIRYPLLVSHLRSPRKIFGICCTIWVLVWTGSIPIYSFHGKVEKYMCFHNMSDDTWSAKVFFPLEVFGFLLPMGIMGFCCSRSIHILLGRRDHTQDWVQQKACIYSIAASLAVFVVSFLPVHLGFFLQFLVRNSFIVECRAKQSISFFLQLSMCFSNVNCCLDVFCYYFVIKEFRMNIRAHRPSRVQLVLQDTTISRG

CHO = assay: cytotoxicity in TLR9-MyD88 CHO cells, dose response, cytotoxicity control for TLR9-MyD88 binding inhibitor project, cell-based, luminescence (AID 588339); format: functional, hamster; conditions: Cricetulus griseus;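 further: CHO cells stably coexpressing TLR9 and MyD88 fusions from primary screen; compound exposure lasted 48 hours before viability readout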
Beta Lactamase = Beta Lactamase (Pseudomonas aeruginosa, UniProt Q932Y6); assay: beta-lactamase reporter inhibitor potency, dose response, artefact control for TLR9-MyD88 binding inhibitor project, BLA reporter cells, FRET fluorescence (AID 588341); format: cell-based;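 further: cell based assay in CHO-K1 cells stably expressing beta-lactamase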
Chain of Beta Lactamase (Q932Y6 whole entry): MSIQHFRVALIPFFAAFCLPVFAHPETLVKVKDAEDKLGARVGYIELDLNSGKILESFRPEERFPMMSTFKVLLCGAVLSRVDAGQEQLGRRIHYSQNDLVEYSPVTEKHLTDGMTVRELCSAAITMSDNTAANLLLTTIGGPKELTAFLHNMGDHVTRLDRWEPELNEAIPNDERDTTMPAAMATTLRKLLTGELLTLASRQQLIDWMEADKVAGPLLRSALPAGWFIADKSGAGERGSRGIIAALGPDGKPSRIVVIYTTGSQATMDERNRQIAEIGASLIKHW

[21] = biological target: T6, Botulinum neurotoxin type A (Clostridium botulinum (strain Hall / ATCC 3502 / NCTC 13319 / Type A), UniProt P0DPI1); assay: High-throughput multiplex microsphere dose response for inhibitors of toxin protease, specifically Botulinum neurotoxin light chain A protease, compounds from Cherry Pick 01.; format: functional; conditions: read-out: EC50_MICROM
T6 sequence (P0DPI1 2-448 limits assumed): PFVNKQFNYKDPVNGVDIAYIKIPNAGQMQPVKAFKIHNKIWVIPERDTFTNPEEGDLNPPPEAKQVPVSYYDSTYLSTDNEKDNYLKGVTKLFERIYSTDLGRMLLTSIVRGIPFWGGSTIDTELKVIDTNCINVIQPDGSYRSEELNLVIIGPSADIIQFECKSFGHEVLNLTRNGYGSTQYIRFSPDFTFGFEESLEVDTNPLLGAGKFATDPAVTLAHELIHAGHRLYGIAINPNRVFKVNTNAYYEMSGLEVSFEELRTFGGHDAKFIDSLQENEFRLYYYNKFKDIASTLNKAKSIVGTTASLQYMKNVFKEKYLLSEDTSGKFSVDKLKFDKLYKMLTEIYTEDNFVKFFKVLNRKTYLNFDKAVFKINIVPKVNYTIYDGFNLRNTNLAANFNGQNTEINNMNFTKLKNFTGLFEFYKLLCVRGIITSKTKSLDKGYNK

[22] = biological target: T7, Botulinum neurotoxin type F (Clostridium botulinum, UniProt P30996); assay: High-throughput multiplex microsphere dose response for inhibitors of toxin protease, specifically Botulinum neurotoxin light chain F protease, compounds from Cherry Pick 01.; format: functional; conditions: read-out: EC50_MICROM
T7 sequence (P30996 1-436 limits assumed): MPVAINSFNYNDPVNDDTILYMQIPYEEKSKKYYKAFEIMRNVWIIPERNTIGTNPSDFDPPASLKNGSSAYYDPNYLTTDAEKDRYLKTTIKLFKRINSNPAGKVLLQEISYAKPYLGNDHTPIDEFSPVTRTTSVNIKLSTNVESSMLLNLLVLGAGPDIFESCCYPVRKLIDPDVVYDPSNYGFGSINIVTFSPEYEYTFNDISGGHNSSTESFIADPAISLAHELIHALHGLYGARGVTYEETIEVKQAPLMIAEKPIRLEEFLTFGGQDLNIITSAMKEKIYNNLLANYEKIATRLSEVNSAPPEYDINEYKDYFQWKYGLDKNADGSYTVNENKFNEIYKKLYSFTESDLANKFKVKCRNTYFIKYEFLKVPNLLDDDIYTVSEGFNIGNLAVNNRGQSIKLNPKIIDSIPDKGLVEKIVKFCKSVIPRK

[23] = biological target: T6, Botulinum neurotoxin type A; assay: High-throughput multiplex microsphere dose response for inhibitors of toxin protease, specifically Botulinum neurotoxin light chain A protease, compounds from Powder Set 01.; format: functional, Clostridium botulinum A str. ATCC 3502; conditions: read-out: EC50_MICROM
[24] = biological target: T7, Botulinum neurotoxin type F; assay: High-throughput multiplex microsphere dose response for inhibitors of toxin protease, specifically Botulinum neurotoxin light chain F protease, compounds from Powder Set 01.; format: functional, Clostridium botulinum Bf; conditions: read-out: EC50_MICROM
[25] = biological target: T6, Botulinum neurotoxin type A; assay: Confirmatory FRET assay using full length substrates for Botulinum neurotoxin light chain A protease, with Powder Set01.; format: functional
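Wherever AC50 is given: cells exposed to compound for roughly 70 hours or longer before luminescence read.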

Chain of Genome polyprotein (Hepatitis C virus, UniProt Q2Q167) (Q2Q167 whole entry): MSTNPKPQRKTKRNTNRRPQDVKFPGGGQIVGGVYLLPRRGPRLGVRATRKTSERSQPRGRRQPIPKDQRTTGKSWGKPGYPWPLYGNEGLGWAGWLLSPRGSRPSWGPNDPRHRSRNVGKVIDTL

Compound: Cn1cccc1/C=C1/C(=O)NC(=S)N(Cc2ccc(F)cc2)C1=O
- IC50 (Genome polyprotein [1]): > 49.8 µM (not active)
- IC50 [2]: > 100 µM (active)
- CC50 [3]: 23 µM (active)
- CC50 [4]: 14.5 µM (active)
- AC50 [5]: 1.18 µM (active)
- IC50 (cells): 33.9 µM (active)
- CC50 (Vero): > 40 µM (active)
- IC50 (Genome polyprotein [6]): > 100 µM (active)
- IC50 [7]: 3.55 µM (active)
- IC50 [8]: 55.3 µM (inactive)
- IC50 (Protein Tat): > 100 µM (active)
- CC50 [9]: > 40 µM (active)

Compound: Cc1cc(O)c(-c2cc(C(=O)Nc3cccnc3)[nH]n2)cc1C
- IC50 (Caspase-3 [10]): 32.2 µM (active)
- IC50 [11]: 3.61 µM (active)
- IC50 [12]: > 100 µM (inactive)
- IC50 [13]: > 100 µM (inactive)
- IC50 [14]: > 99 µM (inactive)
- IC50 (Caspase-3 [15]): 8.64 µM (active)
- IC50 [16]: > 99 µM (inactive)
- IC50 [17]: 2.97 µM (active)

Compound: O=[N+]([O-])c1ccc(C2=NN(c3ccccc3)C(c3ccco3)C2)cc1 (stereo not given)
- IC50 [18]: 2.49 µM (active)
- IC50 [19]: 3.78 µM (active)
- EC50 [20]: < 0.5 µM (active)
- IC50 (CHO): > 49.7 µM (inactive)
- IC50 (Beta Lactamase): 2.64 µM (active)
- EC50 [21]: 2.6 µM (active)
- EC50 [22]: 1.5 µM (active)
- EC50 [23]: 0.4 µM (active)
- EC50 [24]: 0.5 µM (active)
- EC50 [25]: 3.1 µM (active)
